≈ marks a conversion by molar mass, not a printed value. Like-named read-outs stand apart in the source and are kept apart here.
Experiments:
[1] = test system: E. coli KL-16 (GSC strain 4245); assay: In vitro antibacterial activity (MIC assay), broth microdilution; format: cell-based; details: Escherichia coli
Summary of the method: (§1)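 Broth microdilution per NCCLS M7-A5: 11-point 2-fold compound dilutions from DMSO stocks, inoculum about 5×10^5 CFU/mL, incubation 35° C for 16–24 h. MIC scored visually against no-compound growth controls, in μg/mL.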

S. aureus ATCC13709 = assay: as above; format: cell-based; details: Staphylococcus aureus, ATCC13709; read-out: S. aureus ATCC13709 MIC
Summary of the method: as §1

S. pneumoniae ATCC49619 = assay: as above; format: cell-based; details: Streptococcus pneumoniae, ATCC49619; read-out: S. pneumoniae ATCC49619 MIC
Summary of the method: as §1

E. coli DNA gyrase = target: T1, E. coli DNA gyrase (Escherichia coli, UniProt P0AES4+P0AES6); assay: DNA gyrase inhibition assay (supercoiling); format: biochemical
T1 construct: purchased John Innes Enterprises Ltd. (John Innes Centre, UK)
T1 sequence (P0AES4 whole entry, one chain of several): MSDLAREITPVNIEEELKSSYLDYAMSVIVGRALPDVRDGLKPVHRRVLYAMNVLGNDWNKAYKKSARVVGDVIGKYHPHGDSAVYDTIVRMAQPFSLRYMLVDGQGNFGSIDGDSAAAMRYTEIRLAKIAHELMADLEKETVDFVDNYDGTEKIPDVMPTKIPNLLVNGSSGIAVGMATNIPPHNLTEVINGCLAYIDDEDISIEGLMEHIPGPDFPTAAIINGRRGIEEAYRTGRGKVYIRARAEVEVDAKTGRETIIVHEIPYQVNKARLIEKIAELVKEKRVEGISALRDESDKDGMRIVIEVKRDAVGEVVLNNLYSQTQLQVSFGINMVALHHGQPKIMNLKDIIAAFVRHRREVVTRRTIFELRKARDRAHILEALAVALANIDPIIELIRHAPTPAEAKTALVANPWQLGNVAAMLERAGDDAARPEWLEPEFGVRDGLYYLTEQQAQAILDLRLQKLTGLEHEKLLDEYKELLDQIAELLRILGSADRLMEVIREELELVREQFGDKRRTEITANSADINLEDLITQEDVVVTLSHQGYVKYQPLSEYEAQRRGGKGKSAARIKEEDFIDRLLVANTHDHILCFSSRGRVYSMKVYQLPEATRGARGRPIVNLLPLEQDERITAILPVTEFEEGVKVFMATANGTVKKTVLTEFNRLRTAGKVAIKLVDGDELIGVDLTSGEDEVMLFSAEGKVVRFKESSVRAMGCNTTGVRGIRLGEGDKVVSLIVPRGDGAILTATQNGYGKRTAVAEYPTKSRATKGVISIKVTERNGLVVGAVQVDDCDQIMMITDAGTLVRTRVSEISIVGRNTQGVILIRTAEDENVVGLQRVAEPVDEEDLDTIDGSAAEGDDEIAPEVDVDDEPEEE
Protocol: Inhibition of the supercoiling activity of E. coli DNA gyrase was determined using enzymes, buffers and substrates received from John Innes Enterprises Ltd. (John Innes Centre, UK). The reactions were performed according to the manufacturer's directions, with the following modifications.
DNA supercoiling reactions were carried out in a total reaction volume of 20 μL containing 250 ng of relaxed pBR322, 35 mM Tris-HCl (pH 7.5), 24 mM KCl, 4 mM MgCl2, 2 mM dithiothreitol, 1.8 mM spermidine, 1 mM ATP, 6.5% glycerol and 100 μg/mL albumin. Compounds diluted in 10% DMSO were added to the reaction mixture to reach a final concentration of 0.5% DMSO. Enzyme was diluted to […] in a solution of 50 mM Tris-HCl (pH 7.5), 100 mM KCl, 2 mM dithiothreitol, 1 mM EDTA, and 50% glycerol. Diluted enzyme (0.2 unit) was added to each reaction.
The reactions were incubated at 37° C. for 30 min. The reactions were then cooled to 0° C., followed by addition of 3 μL of 40% glycerol, 100 mM Tris-HCl (pH 7.5), 50 mM EDTA, 0.5% SDS and 0.1% bromophenol blue. Samples were separated on 1.0% agarose gels. Gels were stained with Ethidium bromide and photographed with a Stratagene Eagle Eye II.

[2] = E. coli DNA gyrase supercoiling, visual inspection of gels, read-out: DNA Gyrase IC50 (converted)

SMILES	MIC [1]	MIC (S. aureus ATCC13709)	MIC (S. pneumoniae ATCC49619)	IC50 (E. coli DNA gyrase; [2])	IC50 (E. coli DNA gyrase)
COc1ccc2nccc(-n3cc4c(n3)CCN(C(=O)c3ccc5c(c3)NC(=O)CS5)CC4)c2n1 [Example 15, 6-[2-(6-Methoxy-[1,5]naphthyridin-4-yl)-4,5,7,8-tetrahydro-2H-1,2,6-triaza-azulene-6-carbonyl]-4H-benzo[1,4]thiazin-3-one]	> 128 µg/mL	1 µg/mL (≈ 2.06 µM)	16 µg/mL (≈ 32.9 µM)	> 65.8 µM	
COc1ccc2nccc(-n3cc4c(n3)CCC(NC(=O)/C=C/c3ccc(F)cc3)C4)c2n1 (stereo not shown) [Example 13, 3-(4-Fluoro-phenyl)-N-[2-(6-methoxy-[1,5]naphthyridin-4-yl)-4,5,6,7-tetrahydro-2H-indazol-5-yl]-acrylamide]	> 128 µg/mL	0.5 µg/mL (≈ 1.13 µM)	8 µg/mL (≈ 18 µM)	> 36.1 µM	
COc1ccc2nccc(-n3cc4c(n3)CCC(NC(=O)c3cc5ccccc5o3)C4)c2c1 (stereo not shown) [Example 25, Benzofuran-2-carboxylic acid [2-(6-methoxy-quinolin-4-yl)-4,5,6,7-tetrahydro-2H-indazol-5-yl]-amide]	> 128 µg/mL	1 µg/mL (≈ 2.28 µM)	8 µg/mL (≈ 18.2 µM)	> 36.5 µM	
COc1ccc2nccc(-n3cc4c(n3)CCC(NC(=O)c3ccc5c(c3)OCCN5C)C4)c2c1 (stereo not shown) [Example 79, 4-Methyl-3,4-dihydro-2H-benzo[1,4]oxazine-7-carboxylic acid [2-(6-methoxy-quinolin-4-yl)-4,5,6,7-tetrahydro-2H-indazol-5-yl]-amide]	> 128 µg/mL	4 µg/mL (≈ 8.52 µM)	8 µg/mL (≈ 17 µM)	> 34.1 µM	
COc1ccc2nccc(-n3cc4c(n3)CCC(NCc3cc5c(cc3F)OCCO5)C4)c2n1 (stereo not shown) [Example 43, (7-Fluoro-2,3-dihydro-benzo[1,4]dioxin-6-ylmethyl)-[2-(6-methoxy-[1,5]naphthyridin-4-yl)-4,5,6,7-tetrahydro-2H-indazol-5-yl]-amine]	16 µg/mL (≈ 34.7 µM)	> 0.125 µg/mL	1 µg/mL (≈ 2.17 µM)	1.08 µM	
COc1ccc2nccc(-n3cc4c(n3)CCC(NCC(=O)Nc3ccc(C)cc3)C4)c2n1 (stereo not shown) [Example 60, 2-[2-(6-Methoxy-[1,5]naphthyridin-4-yl)-4,5,6,7-tetrahydro-2H-indazol-5-ylamino]-N-p-tolyl-acetamide]	> 128 µg/mL	1 µg/mL (≈ 2.26 µM)	8 µg/mL (≈ 18.1 µM)	> 36.2 µM	
O=C1CSc2ccc(C(=O)NC3CCc4c(cnn4-c4cc(C(F)(F)F)nc5ccccc45)C3)cc2N1 (stereo not shown) [Example 97, 3-Oxo-3,4-dihydro-2H-benzo[1,4]thiazine-6-carboxylic acid [1-(2-trifluoromethyl-quinolin-4-yl)-4,5,6,7-tetrahydro-1H-indazol-5-yl]-amide]	> 128 µg/mL	> 128 µg/mL	> 128 µg/mL	> 30.6 µM	
COc1ccc2nccc(-n3cc4c(n3)CCC(NC(=O)/C=C/c3cccc([N+](=O)[O-])c3)C4)c2n1 (stereo not shown) [Example 14, N-[2-(6-Methoxy-[1,5]naphthyridin-4-yl)-4,5,6,7-tetrahydro-2H-indazol-5-yl]-3-(3-nitro-phenyl)-acrylamide]	> 128 µg/mL	1 µg/mL (≈ 2.13 µM)	16 µg/mL (≈ 34 µM)	2.13 µM	
COc1ccc2nccc(-n3cc4c(n3)CCC(NCc3cc(F)c5c(c3)OCCO5)C4)c2n1 (stereo not shown) [Example 101, (8-Fluoro-2,3-dihydro-benzo[1,4]dioxin-6-ylmethyl)-[2-(6-methoxy-[1,5]naphthyridin-4-yl)-4,5,6,7-tetrahydro-2H-indazol-5-yl]-amine]	4 µg/mL (≈ 8.67 µM)	0.125 µg/mL (≈ 0.271 µM)	1 µg/mL (≈ 2.17 µM)	0.542 µM	
COc1ccc2nccc(-n3cc4c(n3)CCC(NC(=O)C(=O)c3cc5ccccc5[nH]3)C4)c2n1 (stereo not shown) [Example 9, 2-(1H-Indol-2-yl)-N-[2-(6-methoxy-[1,5]naphthyridin-4-yl)-4,5,6,7-tetrahydro-2H-indazol-5-yl]-2-oxo-acetamide]	> 128 µg/mL	0.25 µg/mL (≈ 0.536 µM)	4 µg/mL (≈ 8.57 µM)	> 34.3 µM	
COc1ccc2nccc(-n3cc4c(n3)CCC(NC(=O)c3ccc5c(c3)NC(=O)CO5)C4)c2c1 (stereo not shown) [Example 116, 3-Oxo-3,4-dihydro-2H-benzo[1,4]oxazine-6-carboxylic acid [2-(6-methoxy-quinolin-4-yl)-4,5,6,7-tetrahydro-2H-indazol-5-yl]-amide]	2 µg/mL (≈ 4.26 µM)	0.125 µg/mL (≈ 0.266 µM)	4 µg/mL (≈ 8.52 µM)	0.532 µM	
COc1ccc2nccc(-n3cc4c(n3)CCC(NC(=O)c3nc5ccccc5[nH]3)C4)c2n1 (stereo not shown) [Example 8, 1H-Benzoimidazole-2-carboxylic acid [2-(6-methoxy-[1,5]naphthyridin-4-yl)-4,5,6,7-tetrahydro-2H-indazol-5-yl]-amide]	> 128 µg/mL	0.25 µg/mL (≈ 0.569 µM)	4 µg/mL (≈ 9.1 µM)	> 36.4 µM	
COc1ccc2nccc(-n3cc4c(n3)CCC(NC(=O)/C=C/c3ccc(Cl)c(Cl)c3)C4)c2n1 (stereo not shown) [Example 92, 3-(3,4-Dichloro-phenyl)-N-[2-(6-methoxy-[1,5]naphthyridin-4-yl)-4,5,6,7-tetrahydro-2H-indazol-5-yl]-acrylamide]	> 128 µg/mL	0.5 µg/mL (≈ 1.01 µM)	> 128 µg/mL	> 32.4 µM	
O=C1CSc2ccc(C(=O)NC3CCc4c(cnn4-c4cc(C(F)(F)F)nc5c(C(F)(F)F)cccc45)C3)cc2N1 (stereo not shown) [Example 96, 3-Oxo-3,4-dihydro-2H-benzo[1,4]thiazine-6-carboxylic acid [1-(2,8-bis-trifluoromethyl-quinolin-4-yl)-4,5,6,7-tetrahydro-1H-indazol-5-yl]-amide]	64 µg/mL (≈ 108 µM)	8 µg/mL (≈ 13.5 µM)	32 µg/mL (≈ 54.1 µM)	> 6.76 µM	
COc1ccc2nccc(-n3cc4c(n3)CCC(NCc3cc5c(cc3F)SCCN5)C4)c2c1 (stereo not shown) [Example 106]	8 µg/mL (≈ 16.8 µM)	0.5 µg/mL (≈ 1.05 µM)	1 µg/mL (≈ 2.1 µM)		4.21 µM
COc1ccc2nccc(-n3cc4c(n3)CCC(NCc3cc(F)c5c(c3)OCCO5)C4)c2c1 (stereo not shown) [Example 100, (8-Fluoro-2,3-dihydro-benzo[1,4]dioxin-6-ylmethyl)-[2-(6-methoxy-quinolin-4-yl)-4,5,6,7-tetrahydro-2H-indazol-5-yl]-amine]	16 µg/mL (≈ 34.7 µM)	0.25 µg/mL (≈ 0.543 µM)	0.5 µg/mL (≈ 1.09 µM)	1.09 µM	
COc1ccc2nccc(-n3cc4c(n3)CCC(NC(=O)c3cc5c(F)cc(F)cc5[nH]3)C4)c2n1 (stereo not shown) [Example 7, 4,6-Difluoro-1H-indole-2-carboxylic acid [2-(6-methoxyl-[1,5]naphthyridin-4-yl)-4,5,6,7-tetrahydro-2H-indazol-5-yl]-amide]	> 128 µg/mL	0.25 µg/mL (≈ 0.527 µM)	> 128 µg/mL	4.22 µM	
COc1ccc2nccc(-n3cc4c(n3)CCC(NC(=O)c3cc5c(cc3C(F)(F)F)SCC(=O)N5)C4)c2n1 (stereo not shown) [Example 112, 3-Oxo-7-trifluoromethyl-3,4-dihydro-2H-benzo[1,4]thiazine-6-carboxylic acid [2-(6-methoxy-[1,5]naphthyridin-4-yl)-4,5,6,7-tetrahydro-2H-indazol-5-yl]-amide]	4 µg/mL (≈ 7.21 µM)	0.125 µg/mL (≈ 0.225 µM)	8 µg/mL (≈ 14.4 µM)	0.451 µM	
COc1ccc2nccc(-n3cc4c(n3)CCC(NCCOc3ccccc3)C4)c2n1 (stereo not shown) [Example 65, [2-(6-Methoxy-[1,5]naphthyridin-4-yl)-4,5,6,7-tetrahydro-2H-indazol-5-yl]-(2-phenoxy-ethyl)-amine]	> 128 µg/mL	0.5 µg/mL (≈ 1.2 µM)	1 µg/mL (≈ 2.41 µM)	2.41 µM	
